Data: patent US7795226B2, “Control of radiation injury” (Biotempt B.V., priority 2006, dated 2010)

Assays:
[1] = test system: LPS (E. coli 026:B6)-induced sepsis in BALB/c mice; experiment: endotoxin shock survival after early or late treatment with peptide; format: in vivo
Experimental: Mice used in sepsis or septic shock experiments: Female BALB/c mice of eight to twelve weeks of age were used for all experiments. The animals were bred in our facility under specific pathogen-free conditions according to the protocols described in the […] of European Laboratory Animal Science Associations (FELASA) Working group on Animal Health (Laboratory Animals 28:1-24, 1994).
Injection protocols: For the endotoxin model, BALB/c mice were injected i.p. with 150-300 μg LPS (E. coli 026:B6; Difco Lab., Detroit, Mich., USA). Control groups were treated with PBS i.p. only. To test the effect of peptides, they were dissolved in PBS and injected i.p. at predetermined points in time after LPS treatment.
A further set of septic shock experiments were set up to determine which of the peptides LQG, LQGV (SEQ ID NO:117), VLPALP (SEQ ID NO:140), VLPALPQ (SEQ ID NO:143), MTR, MTRV (SEQ ID NO:119), VVC or AQGV (SEQ ID NO:120) under study were most suited to be used early and/or late after or throughout the development of shock. For determining the percent of endotoxin shock survival after late or early treatment with peptide, BALB/c mice were injected i.p. with 300 μg LPS (E. coli 026:B6; Difco Lab., Detroit, Mich. USA), predetermined to be leading to 100% mortality in 48 hours without peptide treatment.
To evaluate the effect of peptide treatment at an early or late point in time of development of shock, mice were treated at two hours or at 24 hours after LPS injection by i.p. injection with test peptide at 5 mg/kg bodyweight. The mice were followed for 84 hours instead of for 48 hours in the earlier experiments.

[2] = test system: cell-cycle marker pCDG and auxin-responsive marker DR5::GUS; experiment: Arabidopsis thaliana seedling cell-cycle analysis (GUS markers); conditions: for identified as useful peptide for treatment of radiation injury from cell-cycle studies in plants and in vitro proliferation studies: Results from Examples 9 and 10
Outline: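 Four-day-old Ws-0 seedlings carrying GUS reporters (pCDG, DR5::GUS) were exposed to peptides at 5 mg/ml in PBS pH 8 for four and eight hours. GUS staining with 2 mM X-Gluc for 16 hours; distribution in root, root-hypocotyl transition zone and cotyledons assessed by DIC microscopy after chloral hydrate clearing.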

[3] = test system: spleen cell suspensions stimulated with anti-CD3 antibody; experiment: anti-CD3 induced proliferation of spleen cells from peptide-treated mice; format: cell-based; conditions: mice treated i.p. 0.5 or 5 mg/kg for one hour; 0, 12, 24 and 48 hours culture
Experimental: FIG. 4: A test on representative oligopeptides for their effect on proliferation during rapid growth of murine monocytes induced by CD3 when avid cell division occurs. Mice (n=5) were treated i.p. PBS, Nak4 (LQGV (SEQ ID NO:117)), Nak47 (LAGV (SEQ ID NO:121)), Nak46 (AQGV (SEQ ID NO:120)) provided by Ansynth BV, The Netherlands, or Nak46* (AQGV (SEQ ID NO:120) provided by Diosynth BV, The Netherlands). Mice were treated with 0.5 mg/kg of 5 mg/kg peptide for one hour, after which, spleens were isolated and spleen cell suspensions were made. Spleen cell suspensions were pooled per group and cultured in vitro (in three-fold) in the presence of PBS or of anti-CD3 antibody and proliferation was tested at 0, 12, 24 and 48 hours after culture.
To further study anti-cell-cycle activity of various oligopeptides, an in vitro experiment in […] of mice stimulated with anti-CD3 was performed. The aim was to test representative oligopeptides for their effect on proliferation during rapid growth induced by CD3 when avid cell division occurs. Mice (n=5) were treated i.p. PBS, Nak4 (LQGV (SEO ID NO:117)), Nak47 (LAGV (SEQ ID NO:121)), Nak46 (AQGV (SEQ ID NO:120)) provided by Ansynth BV, The Netherlands, or Nak46* (AQGV (SEQ ID NO:120) provided by Diosynth BV, The Netherlands). Mice were treated with 0.5 mg/kg or 5 mg/kg peptide for one hour after which spleens were isolated and spleen cell suspensions were made. Spleen cell suspensions were pooled per group and cultured in vitro (in three-fold) in the presence of PBS or of anti-CD3 antibody and proliferation was tested at 0, 12, 24 and 48 hours after culture.

[4] = 0 hours, peptide 5 mg/kg 2 hours after LPS
[5] = 0 hours, peptide 5 mg/kg 24 hours after LPS
[6] = 14 hours, peptide 5 mg/kg 2 hours after LPS
[7] = 14 hours, peptide 5 mg/kg 24 hours after LPS
[8] = 24 hours, peptide 5 mg/kg 2 hours after LPS
[9] = 24 hours, peptide 5 mg/kg 24 hours after LPS
[10] = 48 hours, peptide 5 mg/kg 2 hours after LPS
[11] = 48 hours, peptide 5 mg/kg 24 hours after LPS
[12] = 84 hours, peptide 5 mg/kg 2 hours after LPS
[13] = 84 hours, peptide 5 mg/kg 24 hours after LPS
[14] = 5 mg/kg given both early (2 hours) or late (24 hours)

Substance | % Survival [1, 4] [%] | % Survival [1, 5] [%] | % Survival [1, 6] [%] | % Survival [1, 7] [%] | % Survival [1, 8] [%] | % Survival [1, 9] [%] | % Survival [1, 10] [%] | % Survival [1, 11] [%] | % Survival [1, 12] [%] | % Survival [1, 13] [%] | identified as useful peptide for treatment of radiation injury from cell-cycle studies in plants and in vitro proliferation studies [2] | effect on cell-cycle marker (pCDG) and auxin-responsive marker (DR5::GUS) (in words) ([2]; seedlings incubated four and eight hours, 5 mg/ml peptide solution) | proliferation of anti-CD3 stimulated spleen cells (in words) [3] | clinical signs of shock at 84 hours after LPS-treatment (in words) [1, 14] | survival at 84 hours after LPS-treatment [1, 14] [%]
MTR | 100 | 100 | 100 | 100 | 100 | 100 | 100 | 100 | 50 | 100 |  |  |  |  | 
MTRV | 100 | 100 | 100 | 100 | 100 | 100 | 50 | 100 | 30 | 100 | useful |  |  |  | 
VLPALP (hexamer peptide) | 100 | 100 | 100 | 100 | 100 | 100 | 100 | 0 | 100 | 0 | useful |  |  |  | 
LQG | 100 | 100 | 100 | 100 | 100 | 100 | 0 | 0 | 0 | 0 |  |  |  |  | 
LQGV | 100 | 100 | 100 | 100 | 100 | 100 | 100 | 0 | 100 | 0 | useful | clear effect on the tested markers | reduction of proliferation |  | 
VLPALPQ (septamer peptide) | 100 | 100 | 100 | 100 | 100 | 100 | 0 | 100 | 0 | 100 |  |  |  |  | 
LAGV (tetramer peptide) |  |  |  |  |  |  |  |  |  |  | useful |  | reduction of proliferation |  | 
AQGV | 100 | 100 | 100 | 100 | 100 | 100 | 100 | 100 | 100 | 100 | useful |  | reduction of proliferation | no remaining clinical signs of shock | 100
